Laboratory results as given in patent US11214556B1, “Method of treating colorectal cancer” (King Abdulaziz University, priority 2019, dated 2022).

Key:
[1] = system: HT-29 cells; assay: SRB cytotoxicity assay, HT-29; format: cell-based, human; conditions: monolayer, 72 h exposure, ± SEM
Outline: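 Cells seeded at 5000/well, grown 24 h, then exposed 72 h at 37 °C to 0.01–100 μM compound or 1% DMSO in RPMI1640 with 10% FBS. TCA-fixed, SRB-stained, OD read at 510 nm; viability expressed relative to untreated control cells.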

[2] = system: HCT-116 cells; assay: Cell cycle analysis by flow cytometry; format: cell-based, human; conditions: IC50 concentration, 24 h
From the text: The exposure of the cells to 4112 led to a significant increase in the proportion of cells in pre-G1 phase (Up to 9-fold compared to the control). Accumulation of cells in pre-G1 phase, likely as a result of degradation or fragmentation of genetic material indicates a possible role for apoptosis through compound-induced growth inhibition.
The cells were collected by trypsinization, washed with phosphate buffered saline (PBS) and fixed in ice-cold absolute alcohol. Thereafter, cells were stained using Cycletest™ Plus DNA Reagent Kit (BD Biosciences, San Jose, Calif.) according to the manufacturer's instructions. Cell cycle distribution was determined using a FACS Calibur flow cytometer (BD Biosciences, San Jose, Calif.).

[3] = system: HCT-116 cells; assay: ROS accumulation by DCFDA staining; format: cell-based, human; conditions: 24 and 48 h, compared to untreated cells
Method: The elevation of oxidative stress inside cancer cells, consequent to treatment with 4112, was investigated via monitoring ROS release over time (24 and 48 h). In this test, the 2′,7′-dichlorofluorescin diacetate (DCFDA) dye was used to detect various ROS species and emit green fluorescence.
To determine the effect of the newly synthesized compounds on the cellular redox status, two different free radical sensitive probe dichlorofluorescin diacetate (DCFDA) was used. Cells were cultured on sterile 22 mm^2 cover slips (Harvard Apparatus, MA, USA) in sterile six well plates at a density of 2×10^5 cells/well. […] At the end of the exposure, cells attached to cover slips were washed thrice with PBS and incubated with DCFDA 10 μM for 30 min at 37° C. in the dark. Thereafter, cells were washed thrice with PBS and the cover slips were then mounted on a glass slide with anti-fade mounting medium containing 4′,6′-diamidino-2-phenylindole, dihydrochloride (DAPI) (Sigma-Aldrich, St. Louis, Mo., USA), which was used as counter stain and viewed with an epifluorescence microscope, Leica, DM 5500 B (Leica, Buffalo Grove, Ill., USA) at a magnification of 60×. Data were captured digitally and quantified using the microscope provided software.

[4] = system: Swiss albino mice; assay: Acute oral toxicity (LD50), OECD guideline 423; format: in vivo; conditions: oral, mice
From the text: Since compounds with electrophilic properties, e.g., MA are usually involved in a variety of toxic effects on mammalians, the general acute toxicity of 1512, 3712 and 4112 was investigated by determining the in vivo lethal dose (LD50) according to the Globally Harmonized Classification System (GHS) and following the Organization for Economic Cooperation and Development (OECD) guideline 423 (modified, adopted Mar. 23, 2006). As observed in the cellular assay, the compound safety was confirmed, as the LD50 for all compounds were between 2000-5000 mg/kg (Category 5). See Spielmann, H.; Genschow, E.; Liebsch, M.; Halle, W., Determination of the starting dose for acute oral toxicity (LD50) testing in the up and down procedure (UDP) from cytotoxicity data. ATLA 1999, 27 (6), 957-966, incorporated herein by reference in its entirety.
The experiment was conducted on 12 healthy Swiss albino mice (males and females) weighing 22-27 g and aged 8 to 10 weeks obtained from the Animal Station, Pharmacology Dept, Faculty of Pharmacy, King Abdulaziz University, Jeddah. See Shoieb, S. M.; Esmat, A.; Khalifa, A. E.; Abdel-Naim, A. B., Chrysin attenuates testosterone-induced benign prostate hyperplasia in rats. Food and Chemical Toxicology 2018, 111, 650-659, incorporated herein by reference in its entirety. All animals were kept at the regulated temperature (average 23° C.), air quality (Central air conditioning) and light (12-h light/dark cycles). Animals were provided free access to food pellets ad libitum and water. The experimental procedure was approved by the Research Ethics Committee, Faculty of Pharmacy, King Abdulaziz University prior to starting the laboratory work. Animals were humanely treated according to international and scientific principles. Changes other than vitality of the animals such as behavioral and food consumption habits were not observed in this study.
The compounds 1512, 3712 and 4112 of purity 95% or more (LC/MS) were prepared for this study as 10% suspension in water containing 0.5% tween 80.
The animals were distributed randomly into four groups (3 mice at each group). […] The second group received an oral dose of 2000 mg/Kg of the drug and observed after 24 h to count the deceased animals. According to the Guideline 423, when all animals were found alive, the same test was repeated (dose 2000 mg/kg) were given to the third group (3 animals) and observed for 24 h. All animals survived and therefore, a dose of 5000 mg/kg were administered to the fourth and final group.

CCCNC(=O)/C(=C/c1c[nH]c2ccccc12)NC(=O)/C=C/c1cccs1 [Compound 4112, (Z)-3-(1H-indol-3-yl)-N-propyl-2-[(E)-3-(thien-2-yl)acrylamidolacry]amide]
IC50 [1]: 1650 ± 70 nM
increase in proportion of cells in pre-G1 phase compared to the control [2]: Up to 9 fold
accumulation of ROS [3]: causes accumulation of ROS
GHS acute toxicity category [4]: Category 5
